For orientation: melting point means the temperature of the solid-liquid transition.

The results in this text go back to patent publication US20040259875A1, “Amine derivatives” (priority 2001, published 2004).

In the case of `O=C(Nc1ccc(Cl)c(C(F)(F)F)c1)Nc1c(Cl)ccc2ccc(O)cc12` [Example 1-8], the melting point was 260 °C (dec.).
Take `CC(=O)Oc1ccc2c(Cl)cc(Cl)c(NC(=O)Nc3cccc(-c4ccc(Cl)c(F)c4)c3)c2c1` [Example 3-5]: the melting point was 287 °C.
As for `O=C(Nc1ccc2c(c1)C(=O)c1ccccc1-2)Nc1c(Cl)cc(Cl)c2ccc(O)cc12` [Example 4-36], the figure is 236 °C (dec.); as for `CCOC(=O)c1cccc(NC(=O)Nc2c(Cl)cc(Cl)c3ccc(O)cc23)c1` [Example 1-12], 234 to 236 °C.
As to `O=C(Nc1ccc(C(F)(F)F)cc1)Nc1c(Cl)cc(Cl)c2ccc([O-])cc12.[K+]`, the melting point was 179 °C (dec.).
`O=C(NCc1ccc(Br)cc1)Nc1c(Cl)ccc2ccc(O)cc12` [Example 1-6] gave a melting point of 226 to 229 °C.
Regarding `CN(C(=O)Nc1ccc2ccccc2c1)c1cccc2ccc(O)cc12` [Example 1-79], the melting point is 215 °C.
Take `COc1cccc(-c2cccc(NC(=O)Nc3c(Cl)cc(Cl)c4ccc(O)cc34)c2)c1` [Example 4-17]: the melting point is 246 °C (dec.).
The value for `O=C(Nc1cccc(-c2ccccc2Cl)c1)Nc1c(Cl)cc(Cl)c2ccc(O)cc12` [Example 4-3] was 228 to 232 °C.
`O=C(Nc1ccc(Oc2ccc(Cl)cc2)cc1)Nc1c(Cl)cc(Cl)c2ccc(O)cc12` [Example 4-9] had a melting point of 230 °C.
The value for `O=C(Nc1ccc2c(c1)CCCC2=O)Nc1c(Cl)cc(Cl)c2ccc(O)cc12` [Example 4-40] was 230 °C (dec.); that for `O=C(Nc1ccc2c(c1)CCC2)Nc1c(Cl)cc(Cl)c2ccc(O)cc12` [Example 4-32] was greater than 300 °C.
As to `Cc1ccc(NC(=O)Nc2c(Cl)cc(Cl)c3ccc(O)cc23)cc1F` [Example 4-42], the melting point is 261 to 264 °C (dec.).
As for `O=C(Nc1ccc2ccccc2c1)Nc1c(Cl)cc(Cl)c2ccc(O)cc12` [Example 1-14], the figure is 263 to 265 °C.
In the case of `CC(=O)Oc1ccc2c(Cl)cc(Cl)c(NC(=O)Nc3cccc(-c4ccc(C)c(Cl)c4)c3)c2c1` [Example 3-4], the melting point is 260 °C.
`CCCc1ccc(NC(=O)Nc2c(Cl)cc(Cl)c3ccc(O)cc23)cc1` [Example 4-1, N-(2,4-Dichloro-7-hydroxy-1-naphthyl)-N′-(4-propylphenyl)urea] displayed a melting point of 241 °C.
Regarding `Cc1ccc(NC(=O)Nc2ccc(Cl)c(C(F)(F)F)c2)c2cc(O)ccc12` [Example 1-80], the melting point is 237 to 238 °C.
Turning to `O=C(Nc1ccc(Cl)c(C(F)(F)F)c1)Nc1c(Cl)cc(Cl)c2ccc(O)cc12` [Example 1-9], the melting point was 255 °C (dec.).
With `Cc1cc(NC(=O)Nc2c(Cl)cc(Cl)c3ccc([O-])cc23)ccc1Cl.[K+]`, the melting point came out at 190 °C.
Compound `O=C(Nc1ccc(Cl)c(C(F)(F)F)c1)Nc1c(Cl)cc(CO)c2ccc(O)cc12` [Example 1-82] showed a melting point of 210 °C.
For `COc1ccccc1NC(=O)Nc1c(Br)cc(Br)c2ccc(O)cc12` [Example 1-15], the melting point is 228 to 230 °C.
The value for `O=C(Nc1cccc(Cl)c1Cl)Nc1c(Cl)cc(Cl)c2ccc(O)cc12` [Example 1-39] was 300 °C.
As for `O=C(Nc1ccc(C(F)(F)F)cc1)Nc1c(Cl)cc(Cl)c2ccc(O)cc12` [Example 1-23], the figure is 268 to 271 °C.
For the compound `CC(=O)Oc1ccc2c(Cl)cc(Cl)c(NC(=O)Nc3ccc4c(c3)C(=O)c3ccccc3-4)c2c1` [Example 3-10], the melting point is 213 °C (dec.).
Turning to `O=C(NCc1cccc(F)c1)Nc1c(Br)cc(Br)c2ccc(O)cc12` [Example 1-33], the melting point lay within 215 to 218 °C.
The value for `O=C(NCc1ccc(Br)cc1)Nc1cccc2ccc(O)cc12` [Example 1-71] was 210 °C; that for `C=CCOc1ccc2cccc(NC(=O)Nc3ccc(Cl)c(C(F)(F)F)c3)c2c1` [Example 1-164] was 183 to 184 °C.
For the compound `COc1ccc(NC(=O)Nc2c(Cl)cc(Cl)c3ccc(O)cc23)cc1F` [Example 4-41], the melting point was 235 to 238 °C (dec.).
Compound `O=C(Nc1cccc2c1C(=O)c1ccccc1-2)Nc1c(Cl)cc(Cl)c2ccc(O)cc12` [Example 4-37] gave a melting point greater than 250 °C.
As for `Cc1cc(NC(=O)Nc2c(Cl)cc(Cl)c3ccc(O)cc23)ccc1F` [Example 4-45], the figure is 250 to 252 °C (dec.).
On to `O=C(Nc1ccc(F)c(F)c1)Nc1c(Cl)cc(Cl)c2ccc(O)cc12` [Example 4-38], for which the melting point is 244 °C (dec.).
Compound `COc1cccc(NC(=O)Nc2c(Br)cc(Br)c3ccc(O)cc23)c1` [Example 1-16] had a melting point of 213 to 216 °C.
`CC(C)(C)c1cc(NC(=O)Nc2c(Br)cc(Br)c3ccc(O)cc23)no1` [Example 5-1, N-(5-tert-Butyl-3-isoxazolyl)-N′-(2,4-dibromo-7-hydroxy-1-naphthyl)urea] returned a melting point of 214.5 °C.
For the compound `Cc1ccc(-c2cccc(NC(=O)Nc3c(Cl)cc(Cl)c4ccc(O)cc34)c2)cc1Cl` [Example 4-18], the melting point is 234 °C (dec.).
As for `O=C(Nc1cccc(-c2ccc(C(=O)O)cc2)c1)Nc1c(Cl)cc(Cl)c2ccc(O)cc12` [Example 4-11], the figure is 247 °C (dec.).
The value for `O=C(Nc1cc(C(F)(F)F)ccc1Cl)Nc1c(Cl)cc(Cl)c2ccc(O)cc12` [Example 1-41] was greater than 300 °C; that for `COc1ccc(CNC(=O)Nc2c(Cl)cc(Cl)c3ccc(O)cc23)cc1` [Example 1-31] was 223 to 226 °C; that for `CC(C)c1ccc(NC(=O)Nc2cccc3cc(O)ccc23)cc1` [Example 1-139] was 207.5 °C.
As for `O=C(Nc1ccc(F)c(C(F)(F)F)c1)Nc1ccc(Br)c2ccc(O)cc12` [Example 1-73], the figure is 215 °C; as for `O=C(Nc1ccc(Cl)cc1)Nc1c(Cl)cc(Cl)c2ccc(O)cc12` [Example 1-21], 253 to 255 °C.
In the case of `O=C(Nc1cccc(Cl)c1)Nc1cccc2ccc(OC(=O)c3ccccc3)cc12` [Example 1-166], the melting point is 214 to 215 °C.
As for `O=C(NCc1cccc(F)c1)Nc1c(Cl)cc(Cl)c2ccc(O)cc12` [Example 1-30], the figure is 225 to 228 °C.
Regarding `O=C(Nc1cccc(Oc2ccccc2)c1)Nc1c(Cl)cc(Cl)c2ccc(O)cc12` [Example 4-15], the melting point is 226 °C (dec.).
As for `COc1cccc(-c2cccc(NC(=O)Nc3c(Cl)cc(Cl)c4ccc([O-])cc34)c2)c1.[K+]`, the figure is 206 °C (dec.).
For the compound `O=C(Nc1ccc(Cl)c(C(F)(F)F)c1)Nc1c(Br)cc(Br)c2ccc(O)cc12` [Example 1-4], the melting point lay within 242 to 243 °C.
The compound `O=C(Nc1cccc(Cl)c1)Nc1c(Cl)cc(Cl)c2ccc(O)cc12` [Example 1-1, N-(3-Chlorophenyl)-N′-(2,4-dichloro-7-hydroxy-1-naphthyl)urea] yielded a melting point greater than 260 °C.
In the case of `CC1COC(c2cccc(NC(=O)Nc3c(Cl)ccc4ccc(O)cc34)c2)=N1` (centres unmarked) [Example 5-2], the melting point was 162 °C (dec.).
For `O=C(Nc1ccc(F)cc1)Nc1c(Br)cc(Br)c2ccc(O)cc12` [Example 1-25], the melting point lay in the range of 222 to 225 °C.
`O=C(Nc1ccc(Cl)c(C(F)(F)F)c1)Nc1cccc2ccc(O)c(F)c12` [Example 1-34]: the melting point came to 228 °C.
`O=C(Nc1cccc(F)c1)Nc1c(Cl)cc(Cl)c2ccc(O)cc12` [Example 1-40]: the melting point was greater than 300 °C.
Regarding `CC(=O)Oc1ccc2c(Cl)cc(Cl)c(NC(=O)Nc3cnc4ccccc4c3)c2c1` [Example 3-16], the melting point was 205 °C (dec.).
For the compound `CCOC(=O)c1cccc(NC(=O)Nc2c(Br)cc(Br)c3ccc(O)cc23)c1` [Example 1-17], the melting point was 193 to 196 °C.
In the case of `O=C(Nc1ccc(F)cc1Cl)Nc1c(Cl)cc(Cl)c2ccc(O)cc12` [Example 4-16], the melting point is 298 °C (dec.).
With `CN(C(=O)NCc1ccc(Br)cc1)c1cccc2ccc(O)cc12` [Example 1-78], the melting point came to 194 °C.
As to `Cc1cc(NC(=O)Nc2c(Cl)cc(Cl)c3ccc(O)cc23)ccc1Cl` [Example 4-39], the melting point is 240 °C (dec.).
With `O=C(Nc1ccc(Cl)c(C(F)(F)F)c1)Nc1cccc2ccc(OC(=O)c3ccccc3)cc12` [Example 1-165], the melting point was 220 to 222 °C.
`CC(=O)Oc1ccc2c(Cl)cc(Cl)c(NC(=O)Nc3ccc(N4CCOCC4)c(Cl)c3)c2c1` [Example 3-13]: the melting point is 206 °C.
For `Nc1ccc2cccc(NC(=O)Nc3ccc(Cl)c(C(F)(F)F)c3)c2c1` [Example 1-76, N-(7-amino-naphthalen-1-yl)-N′-(4-chloro-3-trifluoromethyl-phenyl)urea], the melting point is 232 to 234 °C.
Turning to `CC(=O)Oc1ccc2c(Cl)cc(Cl)c(NC(=O)Nc3ccc(F)c(F)c3)c2c1` [Example 3-14], the melting point is 226 °C (dec.).
As for `O=C(Nc1c(Cl)cc(Cl)c2ccc(O)cc12)NC1CCCc2ccccc21` (centres unmarked) [Example 4-13], the figure is 238 °C (dec.).
As to `O=C(Nc1cccc(-c2ccc(Cl)c(F)c2)c1)Nc1c(Cl)cc(Cl)c2ccc(O)cc12` [Example 4-19], the melting point was 241 °C (dec.).
Take `CCN(CC)c1ccc(NC(=O)Nc2c(Cl)ccc3ccc(O)cc23)cc1` [Example 1-35]: the melting point lay within 199.8 to 200.5 °C.
As to `CC(=O)Oc1ccc2c(Cl)cc(Cl)c(NC(=O)Nc3cccc(-c4ccccc4Cl)c3)c2c1` [Example 3-1, 5,7-Dichloro-8-({[(2′-chloro-1,1′-biphenyl-3-yl)amino]carbonyl}amino)-2-naphthyl acetate], the melting point worked out at 180 °C.
On to `CS(=O)(=O)Nc1ccc2cccc(NC(=O)Nc3ccc(Cl)c(C(F)(F)F)c3)c2c1` [Example 10-1, N-{8-[({[4-Chloro-3-(trifluoromethyl)phenyl]amino}carbonyl)amino]-2-naphthyl}methanesulfonamide], for which the melting point fell in the range of 225 to 226 °C.
As for `O=C(Nc1cccc(Cl)c1)Nc1c(Cl)ccc2ccc(O)cc12` [Example 1-2], the melting point lay within 242 to 243 °C.
